According to patent US7109339B2, “Substituted tricyclic gamma-carbolines as serotonin receptor agonists and antagonists” (Bristol-Myers Squibb Company, priority 2002, dated 2006):

With `CC(C)(C)OC(=O)N1CC[C@H]2[C@@H](C1)c1cc(Br)cc(C#N)c1N2C(=O)OC(C)(C)C` the melting point was 74 to 78 °C.
For `COc1ncc(C)cc1Nc1cc(C#N)c2c(c1)[C@@H]1CNCC[C@@H]1N2C` [Example 169, (4aS,9bR)-8-(2-methoxy-5-methyl-pyridin-3-ylamino)-5-methyl-2,3,4,4a,5,9b-hexahydro-1H-pyrido[4,3-b]indole-6-carbonitrile], the melting point was 76 to 80 °C.
With `COc1cc2c(c(C(F)(F)F)c1)N[C@H]1CCNC[C@@H]21` the melting point was 140 to 144 °C.
